Results reported in patent US5338725A, “Anti-aggregatory agents for platelets” (The Research Foundation of the State University of New York, priority 1992, dated 1994).
Starred links: 1 amine or outer side, 2 acyl side, 3 side chain; linkers in the order of their positions; H or OH if unused. Positions of bridges follow the written chain, without caps; N, C: chain ends. Non-standard residues stand in square brackets, D forms with d. Residues, ends and D or L forms follow the SMILES beside them. Chains are numbered I, II in the order given. X2 = O=C(O)CNC(=O)c1cc(N[*:1])cc(N[*:2])c1; X1 = NC(=O)c1cc(N[*:1])cc(N[*:2])c1; Adipoyl = O=C(CCCCC(=O)[*:2])[*:1]; 3Abz = Nc1cccc(C(=O)O)c1; 4Abz = Nc1ccc(C(=O)O)cc1; 2Abz = Nc1ccccc1C(=O)O

biological target: human platelet-rich plasma (Homo sapiens, UniProt P05106+P08514); experiment: In vitro inhibition of ADP-induced aggregation of human platelet-rich plasma (Coller assay); format: cell-based; details: adjusted for fibrinogen concentration (ca. 30 times lower than Coller assay value; 0.1 mg/mL fibrinogen)
Experimental: 1. In vitro Inhibition of Aggregation of Human Platelet-Rich Plasma
Whole blood (10 ml) was collected from human volunteers and anticoagulated by addition of […] of 40% sodium citrate. Platelet-rich plasma (PRP) was prepared by low speed centrifugation (700 G for 3.5 min at 22° C.). The PRP was removed and the remaining blood was centrifuged at 2000 G for 10 min at 22 ° C. to obtain platelet poor plasma (PPP). The PRP was diluted with PPP to give a final platelet count of 300 000μL with a Coulter Acounter Model ZM (Coulter, Hialeah, Fla.). This diluted PRP (400μL) was placed in a siliconized glass cuvette equipped with a magnetic stirrer and stirred at 1200 rpm at 37° C. Various concentrations of the peptides (36μL) in TRIS buffer (0.01 M TRIS, 0.15 M NaCl, and 0.05% sodium azide, pH 7.4) was added and incubated for 3 rain before platelet aggregation was induced by addition of 54μL of 100μM ADP in HEPES buffer (0.01 M HEPES and 0.15 M NaCl, pH 7.5). The platelet aggregation was determined by a change in light transmission through the PRP on a Lumi Aggregometer 400rS (ChronoLog, Hayertown, PA). The ability of the peptides to inhibit platelet aggregation was evaluated and the IC50 was determined as the concentration of peptide required to produce 50% inhibition of the response to ADP in the presence of the TRIS buffer.
The assay system developed by Coller, which is used throughout the experiment, is different from conventional assay systems in certain aspects. First, the platelets used by Plow et al., Blood, 70, 110 (1987); and Garsky et al., Proc. Natl. Acad. Sci. U.S.A., 86, 4022 (1989) are gel-filtered to remove plasma proteins. Since the gel-filtration treatment may decrease the reactivity of the platelets, our assay avoids this step. The platelet count is adjusted by simply mixing PRP and PPP, which minimizes alterations of the platelets. Second, fibrinogen concentration in the Coller system is different from that of others. As shown in the experimental description of the assay, PRP was obtained from fresh blood and used immediately without further manipulation except for count adjustment. According to measurements obtained using this assay, such plasma contains ca. 3 mg of fibrinogen per 1 mL of plasma. On the other hand, fibrinogen concentration used in the Garsky and Plow assay system is 0.1 mg/mL. The concentration of fibrinogen affects the amount of RGD peptide required to inhibit platelet aggregation, with higher fibrinogen concentrations resulting in higher IC50 values. If there is a linear relationship between these two parameters, the IC50 values obtained from the Coller assay should be ca. 30 times larger than those obtained from the Plow et al. assay or the Garsky et al. assay. The adjusted IC50 values are presented in column 4 of Table showing the inhibitory activities of RGD peptides.
The following peptides were synthesized, and their amino acid contents were analyzed as described in procedures 3-7, above. In addition, their ability to inhibit aggregation of human platelet rich plasma was assessed as described in procedures 1 and 2, above. Their respective IC50 values, as well as their estimated IC50 adjusted to the values according the method of Plow et al., (vide supra) are listed in Table 1.

Sequence of human platelet-rich plasma (P08514 32-1039): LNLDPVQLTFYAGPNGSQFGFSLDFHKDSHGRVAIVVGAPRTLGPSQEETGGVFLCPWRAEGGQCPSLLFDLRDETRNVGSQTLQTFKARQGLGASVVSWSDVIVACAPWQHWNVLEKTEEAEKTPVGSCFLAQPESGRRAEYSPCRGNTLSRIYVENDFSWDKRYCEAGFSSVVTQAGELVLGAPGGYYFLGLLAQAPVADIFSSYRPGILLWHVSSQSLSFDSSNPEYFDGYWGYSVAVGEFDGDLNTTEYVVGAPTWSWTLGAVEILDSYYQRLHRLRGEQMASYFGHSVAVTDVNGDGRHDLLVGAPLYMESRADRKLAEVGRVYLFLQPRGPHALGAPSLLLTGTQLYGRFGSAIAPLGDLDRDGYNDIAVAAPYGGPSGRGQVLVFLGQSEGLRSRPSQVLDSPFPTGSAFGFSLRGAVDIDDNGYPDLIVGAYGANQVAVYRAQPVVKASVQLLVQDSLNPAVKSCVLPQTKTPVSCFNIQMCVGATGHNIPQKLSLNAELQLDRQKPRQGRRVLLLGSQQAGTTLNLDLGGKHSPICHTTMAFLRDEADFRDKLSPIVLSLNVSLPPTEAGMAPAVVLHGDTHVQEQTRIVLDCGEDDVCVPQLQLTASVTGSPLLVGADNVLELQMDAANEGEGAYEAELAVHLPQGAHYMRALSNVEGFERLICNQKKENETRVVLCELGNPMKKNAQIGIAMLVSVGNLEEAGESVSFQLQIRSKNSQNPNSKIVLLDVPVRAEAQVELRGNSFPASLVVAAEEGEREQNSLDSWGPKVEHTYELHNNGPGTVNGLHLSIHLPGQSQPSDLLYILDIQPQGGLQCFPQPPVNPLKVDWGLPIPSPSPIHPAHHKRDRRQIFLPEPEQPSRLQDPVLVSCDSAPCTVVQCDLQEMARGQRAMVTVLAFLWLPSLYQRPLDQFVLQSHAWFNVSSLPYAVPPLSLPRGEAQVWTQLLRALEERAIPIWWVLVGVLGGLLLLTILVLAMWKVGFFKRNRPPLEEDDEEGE
Sequence of human platelet-rich plasma (P05106 27-788): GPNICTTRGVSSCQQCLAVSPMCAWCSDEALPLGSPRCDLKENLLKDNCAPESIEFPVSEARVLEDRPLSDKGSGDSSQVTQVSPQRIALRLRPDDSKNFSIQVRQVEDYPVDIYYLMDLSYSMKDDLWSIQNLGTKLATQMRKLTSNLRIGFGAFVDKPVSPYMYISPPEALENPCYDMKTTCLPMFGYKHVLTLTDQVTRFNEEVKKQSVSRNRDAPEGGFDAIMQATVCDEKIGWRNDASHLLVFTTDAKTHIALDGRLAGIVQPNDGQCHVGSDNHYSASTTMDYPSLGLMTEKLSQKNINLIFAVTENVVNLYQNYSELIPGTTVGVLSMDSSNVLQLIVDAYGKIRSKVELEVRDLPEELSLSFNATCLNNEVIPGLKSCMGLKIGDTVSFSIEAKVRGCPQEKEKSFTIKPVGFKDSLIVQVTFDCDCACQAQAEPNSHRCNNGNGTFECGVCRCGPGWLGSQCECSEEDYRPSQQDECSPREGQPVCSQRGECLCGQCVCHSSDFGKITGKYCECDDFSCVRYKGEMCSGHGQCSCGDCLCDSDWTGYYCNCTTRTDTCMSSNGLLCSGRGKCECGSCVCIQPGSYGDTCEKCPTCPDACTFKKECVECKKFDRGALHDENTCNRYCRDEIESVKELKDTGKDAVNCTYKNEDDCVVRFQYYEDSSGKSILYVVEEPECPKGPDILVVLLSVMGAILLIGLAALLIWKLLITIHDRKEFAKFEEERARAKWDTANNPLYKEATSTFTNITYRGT

N=C(N)NCCC[C@H](NC(=O)CN)C(=O)NCC(=O)N[C@@H](CC(=O)O)C(=O)N[C@@H](CO)C(=O)NCC(=O)Nc1ccc(C(=O)NCC(=O)N[C@@H](CCCNC(=N)N)C(=O)NCC(=O)N[C@@H](CC(=O)O)C(=O)N[C@@H](Cc2ccccc2)C(N)=O)cc1 [Example 27, GRGDSG-(p)Abz--GRGDF--NH2] (H-GRGDSG[4Abz]GRGDF-NH2) and N=C(N)NCCC[C@H](NC(=O)CN)C(=O)NCC(=O)N[C@@H](CC(=O)O)C(=O)N[C@@H](Cc1ccccc1)C(=O)NCC(=O)Nc1ccc(C(=O)NCC(=O)N[C@@H](CCCNC(=N)N)C(=O)NCC(=O)N[C@@H](CC(=O)O)C(=O)N[C@@H](Cc2ccccc2)C(N)=O)cc1 [Example 24, GRGDFG--(p)Abz--GRGDF--NH2] (H-GRGDFG[4Abz]GRGDF-NH2) are within 1.5-fold of each other in “IC50 (M)* Estimated IC50 adjusted to the values by the method of Plow et al.” value (from here on “IC50 (M)* Estimated IC50 adjusted”): 1.7e-06 M for the first, 2.1e-06 M for the second.

Going from N=C(N)NCCC[C@H](NC(=O)c1ccccc1)C(=O)NCC(=O)N[C@@H](CC(=O)O)C(=O)N[C@@H](Cc1ccccc1)C(=O)NCCCC[C@H](NC(=O)[C@H](Cc1ccccc1)NC(=O)[C@H](CC(=O)O)NC(=O)CNC(=O)[C@H](CCCNC(=N)N)NC(=O)c1ccccc1)C(N)=O [Example 7, (BzRGDF)2 Lys--NH2] to N=C(N)NCCC[C@H](NC(=O)CN)C(=O)NCC(=O)N[C@@H](CC(=O)O)C(=O)N[C@@H](Cc1ccccc1)C(=O)NCCC[C@H](NC(=O)[C@H](Cc1ccccc1)NC(=O)[C@H](CC(=O)O)NC(=O)CNC(=O)[C@H](CCCNC(=N)N)NC(=O)CN)C(N)=O [Example 5, (GRGDF)2 Orn--NH2], the “IC50 (M)* Estimated IC50 adjusted” value rises from 2.9e-07 M to 4.4e-06 M (15-fold).

Going from N=C(N)NCCC[C@H](N)C(=O)NCC(=O)N[C@@H](CC(=O)O)C(=O)N[C@@H](Cc1ccccc1)C(=O)NCCCC[C@H](NC(=O)[C@H](Cc1ccccc1)NC(=O)[C@H](CC(=O)O)NC(=O)CNC(=O)[C@@H](N)CCCNC(=N)N)C(N)=O [Example 3, (RGDF)2 Lys--NH2] to CCCCCC(=O)N[C@@H](CCCNC(=N)N)C(=O)NCC(=O)N[C@@H](CC(=O)O)C(=O)N[C@@H](Cc1ccccc1)C(=O)NCCCC[C@H](NC(=O)[C@H](Cc1ccccc1)NC(=O)[C@H](CC(=O)O)NC(=O)CNC(=O)[C@H](CCCNC(=N)N)NC(=O)CCCCC)C(N)=O [Example 8, (HexRGDF)2 Lys--NH2], the “IC50 (M)* Estimated IC50 adjusted” value falls from 1.2e-06 M to 7.6e-08 M (16-fold).

Going from N=C(N)NCCC[C@H](NC(=O)CN)C(=O)NCC(=O)N[C@@H](CC(=O)O)C(=O)N[C@@H](Cc1ccccc1)C(=O)NCC(=O)Nc1ccc(C(=O)NCC(=O)N[C@@H](CCCNC(=N)N)C(=O)NCC(=O)N[C@@H](CC(=O)O)C(=O)N[C@@H](Cc2ccccc2)C(=O)O)cc1 [Example 21, GRGDFG--(p)Abz--GRGDF--OH] (H-GRGDFG[4Abz]GRGDF-OH) to N=C(N)NCCC[C@H](NC(=O)CN)C(=O)NCC(=O)N[C@@H](CC(=O)O)C(=O)N[C@@H](Cc1ccccc1)C(=O)NCC(=O)Nc1ccccc1C(=O)NCC(=O)N[C@@H](CCCNC(=N)N)C(=O)NCC(=O)N[C@@H](CC(=O)O)C(=O)N[C@@H](Cc1ccccc1)C(N)=O [Example 22, GRGDFG-(o)Abz--GRGDF--NH2] (H-GRGDFG[2Abz]GRGDF-NH2), the “IC50 (M)* Estimated IC50 adjusted” value rises from 1.2e-06 M to 3.1e-06 M (2.6-fold).

First: N=C(N)NCCC[C@H](NC(=O)CN)C(=O)NCC(=O)N[C@@H](CC(=O)O)C(=O)N[C@@H](Cc1ccccc1)C(=O)NCC(=O)Nc1cc(NC(=O)CNC(=O)[C@H](Cc2ccccc2)NC(=O)[C@H](CC(=O)O)NC(=O)CNC(=O)[C@H](CCCNC(=N)N)NC(=O)CN)cc(C(=O)NCC(=O)N[C@@H](CCCNC(=N)N)C(=O)NCC(=O)N[C@@H](CC(=O)O)C(=O)N[C@@H](Cc2ccccc2)C(N)=O)c1 [Example 15, (GRGDFG)2 Dab--GRGDF--NH2]
Second: N=C(N)NCCC[C@H](NC(=O)CN)C(=O)NCC(=O)N[C@@H](CC(=O)O)C(=O)N[C@@H](Cc1ccccc1)C(=O)NCCC[C@H](NC(=O)[C@H](Cc1ccccc1)NC(=O)[C@H](CC(=O)O)NC(=O)CNC(=O)[C@H](CCCNC(=N)N)NC(=O)CN)C(=O)NCC(=O)N[C@@H](CCCNC(=N)N)C(=O)NCC(=O)N[C@@H](CC(=O)O)C(=O)N[C@@H](Cc1ccccc1)C(N)=O [Example 18, (GRGDF)2 Orn--GRGDF--NH2]
The “IC50 (M)* Estimated IC50 adjusted” value of the first is 1.9-fold lower: 1.1e-06 M for the first, 2.1e-06 M for the second.

Going from N=C(N)NCCC[C@H](NC(=O)CCCCC(=O)N[C@@H](CCCNC(=N)N)C(=O)NCC(=O)N[C@@H](CC(=O)O)C(=O)N[C@@H](Cc1ccccc1)C(=O)O)C(=O)NCC(=O)N[C@@H](CC(=O)O)C(=O)N[C@@H](Cc1ccccc1)C(=O)O [Example 14, Bda(RGDF--OH)2] (I: RGDF-OH / II: RGDF-OH; linker I:N-II:N via Adipoyl) to CC(C)[C@H](NC(=O)[C@H](CC(=O)O)NC(=O)CNC(=O)[C@H](CCCNC(=N)N)NC(=O)CN)C(=O)NCC(=O)Nc1ccccc1C(=O)NCC(=O)N[C@@H](CCCNC(=N)N)C(=O)NCC(=O)N[C@@H](CC(=O)O)C(=O)N[C@@H](Cc1ccccc1)C(N)=O [Example 28, GRGDVG--(o)Abz--GRGDF--NH2] (H-GRGDVG[2Abz]GRGDF-NH2), the “IC50 (M)* Estimated IC50 adjusted” value rises from 4.7e-07 M to 3.1e-06 M (6.6-fold).

Compared with N=C(N)NCCC[C@H](N)C(=O)NCC(=O)N[C@@H](CC(=O)O)C(=O)N[C@@H](Cc1ccccc1)C(=O)N1CCC[C@H]1C(=O)NCC(=O)Nc1cc(NC(=O)CNC(=O)[C@@H]2CCCN2C(=O)[C@H](Cc2ccccc2)NC(=O)[C@H](CC(=O)O)NC(=O)CNC(=O)[C@@H](N)CCCNC(=N)N)cc(C(N)=O)c1 [Example 2, (RGDFPG)2 Dab--NH2] (I: H-RGDFPG / II: H-RGDFPG; linker I:C-II:C via X1; N-terminus assumed), N=C(N)NCCC[C@H](N)C(=O)NCC(=O)N[C@@H](CC(=O)O)C(=O)N[C@@H](Cc1ccccc1)C(=O)N1CCC[C@H]1C(=O)NCC(=O)Nc1cc(NC(=O)CNC(=O)[C@@H]2CCCN2C(=O)[C@H](Cc2ccccc2)NC(=O)[C@H](CC(=O)O)NC(=O)CNC(=O)[C@@H](N)CCCNC(=N)N)cc(C(=O)NCC(=O)O)c1 [Example 1, (RGDFPG)2 Dab--G--OH] (I: H-RGDFPG / II: H-RGDFPG; linker I:C-II:C via X2; N-terminus assumed) is 1.6-fold higher in “IC50 (M)* Estimated IC50 adjusted” value: 4.2e-07 M for the first, 6.7e-07 M for the second.

Compared with N=C(N)NCCC[C@H](NC(=O)CN)C(=O)NCC(=O)N[C@@H](CC(=O)O)C(=O)N[C@@H](Cc1ccccc1)C(=O)NCCCC[C@H](NC(=O)[C@H](Cc1ccccc1)NC(=O)[C@H](CC(=O)O)NC(=O)CNC(=O)[C@H](CCCNC(=N)N)NC(=O)CN)C(=O)NCC(=O)N[C@@H](CCCNC(=N)N)C(=O)NCC(=O)N[C@@H](CC(=O)O)C(=O)N[C@@H](Cc1ccccc1)C(N)=O [Example 17, (GRGDF)2 Lys--GRGDF--NH2], N=C(N)NCCC[C@H](NC(=O)C1CC(NC(=O)[C@H](Cc2ccccc2)NC(=O)[C@H](CC(=O)O)NC(=O)CNC(=O)[C@@H](N)CCCNC(=N)N)CC(NC(=O)[C@H](Cc2ccccc2)NC(=O)[C@H](CC(=O)O)NC(=O)CNC(=O)[C@@H](N)CCCNC(=N)N)C1)C(=O)NCC(=O)N[C@@H](CC(=O)O)C(=O)N[C@@H](Cc1ccccc1)C(=O)O (some centres unmarked) [Example 16, (RGDF)2 Dac--RGDF--OH] is 2.4-fold lower in “IC50 (M)* Estimated IC50 adjusted” value: 1.7e-06 M for the first, 7.2e-07 M for the second.

For CC(C)[C@H](NC(=O)[C@H](CC(=O)O)NC(=O)CNC(=O)[C@H](CCCNC(=N)N)NC(=O)CN)C(=O)NCC(=O)Nc1cccc(C(=O)NCC(=O)N[C@@H](CCCNC(=N)N)C(=O)NCC(=O)N[C@@H](CC(=O)O)C(=O)N[C@@H](Cc2ccccc2)C(N)=O)c1 [Example 29, GRGDVG--(m)Abz--GRGDF--NH2] (H-GRGDVG[3Abz]GRGDF-NH2), the “IC50 (M)* Estimated IC50 adjusted” value was 1.5e-06 M.
